Literature values in patent US20220305218A1, “LUMINAL OXYGEN DELIVERY AND DEVICE FOR TREATING DISEASES AND CONDITIONS ASSOCIATED WITH STRICT ANAEROBIC MICROORGANISMS” (priority 2021, published 2022).

In the case of Cc1ncc([N+](=O)[O-])n1CCO [metronidazole], the resistance rate (C. difficile strains) is listed as about 1%.

In the case of O=O [oxygen], the “time C. difficile can persist in a vegetative state” value (C. difficile; room air (20% oxygen, 160 mm Hg)) is listed as about 24 h and the “oxygen partial pressure at which C. difficile is unable to grow” value (C. difficile; strict, obligate anaerobe) is listed as at least 3 mm Hg.

In the case of CN[C@H](CC(C)C)C(=O)N[C@H]1C(=O)N[C@@H](CC(N)=O)C(=O)N[C@H]2C(=O)N[C@H]3C(=O)N[C@H](C(=O)N[C@H](C(=O)O)c4cc(O)cc(O)c4-c4cc3ccc4O)[C@H](O)c3ccc(c(Cl)c3)Oc3cc2cc(c3O[C@@H]2O[C@H](CO)[C@@H](O)[C@H](O)[C@H]2O[C@H]2C[C@](C)(N)[C@H](O)[C@H](C)O2)Oc2ccc(cc2Cl)[C@H]1O [vancomycin], the resistance rate (C. difficile strains) is given as about 1%.
